The values that follow are results of earlier work, collected in US20110250279A1, “CONTROLLED-RELEASE COMPOSITION FOR PRODUCING SUSTAINED-RELEASE PREPARATION CONTAINING UDENAFIL” (Dong-A Pharm. Co., Ltd., priority 2008, published 2011).

The conditions of data set [1]: phase 1 clinical tests (Koreans and Caucasians).
The target of a further data set is PDE-5 (Homo sapiens, UniProt O76074).
Test in data set [2]: not given
This is another data set of the same source.

Take `CCCOc1ccc(S(=O)(=O)NCCC2CCCN2C)cc1-c1nc2c(CCC)nn(C)c2c(=O)[nH]1` (stereo not drawn) [Udenafil, 3-(1-methyl-7-oxo-3-propyl-4,7-dihydro-1H-pyrazolo[4,3-d]pyrimidin-5-yl)-N-[2-(1-methylpyrrolidin-2-yl)ethyl]-4-propoxybenzenesulfonamide]: under “during the clinical tests”, the drug discontinuation rate result is reported as “lowest”. Further, the “extent and frequency of side effects” value (phase 2 and 3 clinical tests, versus conventional oral therapeutic agents for erectile dysfunction) is reported as “lower”. For the same molecule, the “serious abnormal reactions by drugs” value in data set [1] is listed as “did not generate serious abnormal reactions”. At PDE-5, the “inhibitory activity for PDE-5” value is reported as “strong inhibitory activity” and the “selectivity for PDE-5” value is “high selectivity”. In data set [2], the “volume of distribution in vivo” value was “large volume of distribution”. Moreover, in data set [2] (in vivo), the absorption entry was “rapidly absorbed”, the bioavailability entry is recorded as “high bioavailability” and the “half life relative to sildenafil or vardenafil” value was “about three times longer”.
